Results as given in patent US10058619B2, “P97-polynucleotide conjugates” (biOasis Technologies, Inc., priority 2014, dated 2018).

Experiments:
[1] = Brain delivery of AF680-labeled test molecules after IV injection, 3D confocal microscopy of brain sections; type: in vivo, Balb/c mice
Method: Test molecules were intravenously injected (via tail vein) in Balb/c mice and 1 hour later the animals were sacrificed as follows: Prior to euthanasia, mice were injected (i.v.) with tomato Lectin-Texas Red ([…]) for 10 min to stain the brain vasculature. Blood was cleared by intracardiac perfusion of 10 ml heparinized saline (1 ml/min). Brains were excised and frozen on dry ice and stored at −80° C. Brains were mounted in Tissue Tek and sectioned ([…], 3 sections/brain) with a cryostat at −2° C. Sections (n=3/brain) were mounted on Superfrost Plus microscope slides, fixed in cold Acetone/MeOH (1:1) for 10 min at RT, and then washed with PBS. Glass coverslips were mounted on sections using Prolong Gold antifade reagent with DAPI (Molecular probes, P36931). 3D confocal microscopy was performed (4 random fields per section were captured).
Signals for all the sections were calibrated with respect to the PBS control group in order to observe only minimal (but not completely null) AF680 fluorescent signal in those sections (see FIG. 4A).

[2] = system: mouse model of middle cerebral artery occlusion (MCAO); assay: Infarct volume analysis (TTC staining) in mouse model of middle cerebral artery occlusion (MCAO); type: in vivo, C57/Bl6 mice; details: pretreated 3 times with 30 mg/kg IV, 1 hour MCAO, 24 hours post reperfusion
Method: The NOX4 gene-targeted p97-siRNA conjugates from Example 1 were tested for their ability to provide neuroprotection in a mouse model of middle cerebral artery occlusion (MCAO) (see, e.g., Chang et al., J Vis Exp. 2761:2011; Althenhöfer et al., Cell. Mol. Life Sci. 69:2327-2343, 2012; and Kleinschnitz et al., PLoS Biol. 8(9):e1000479, 2010).
C57/Bl6 mice were pretreated 3 times (1 hour interval between each injection) with either PBS or 30 mg/kg of siRNA alone or p97-siRNA via intravenous (IV) injection. Animals were subjected to stroke via MCAO about 1 hour following the last injection, as follows. The external and internal carotid arteries (ECA and ICA, respectively) were dissected and isolated and the common carotid artery (CCA) ligated. An […] 8-0 nylon thread coated in dental silicone was inserted into a small hole in the ECA towards the bifurcation of the CCA. […]
When the TTC staining was completed, infarct size was measured by a colorimetric staining method. […]
Absorbance was measured at 485 nm in a spectrophotometer and the values were averaged. Percentage loss in brain TIC staining in the ischemic side of the brain was compared with the contralateral side of the brain of the same animal using the following equation: % loss=100×(1−absorbance of ischemic hemisphere/absorbance of contralateral hemisphere)

Substance: siRNA^AF680: negative control: unconjugated NOX4 antisense strand annealed to the AF680-labeled sense strand (antisense AUGUUCACAAAGUCAGGUCTT; sense GACCUGACUUUGUGAACAUTT; sense strand linked to Alexa Fluor 680 via linker, end not given here, further chemistry not given here)
- AF680 signal in the vasculature ([1]; 10.0 mg/kg IV via tail vein, 1 h, Balb/c mice, brain sections): no AF680 signal was observed
- perinuclear AF680 signal in the brain parenchyma ([1]; 10.0 mg/kg IV via tail vein, 1 h, Balb/c mice, signals calibrated to PBS control): not detected
- AF680 (red) staining in brain tissues (immunofluorescence imaging, FIGS. 4A-4D) ([1]; mice, following intravenous administration): no AF680 (red) staining
- infarct areas / infarct volume in the brain [2]: large infarct areas
